The test deals with SARS-CoV-2. The test is described as follows: Antiviral activity against SARS-CoV-2 infected in Vero E6 cells assessed as inhibition of viral replication preincubated with cells for 1 hr and subsequent viral infection for 2 hrs followed by replacement with fresh medium containing compounds and measured after 24 hrs by qRT-PCR analysis. The format is functional, organism-based. The note with it: Severe acute respiratory syndrome coronavirus 2, Vero C1008.

Results on one compound are retold here after ChEMBL document CHEMBL5321246, “Aurones: A Promising Scaffold to Inhibit SARS-CoV-2 Replication” (J Nat Prod, 2023).

pEC50: −log10 of the molar value.

For orientation: pEC50 means the negative decadic logarithm of the EC50, by convention in mol/L. As to `O=c1c(O)c(-c2cc(O)c(O)c(O)c2)oc2cc(O)cc(O)c12` [MYRICETIN], the pEC50 is 5.10.
